Reference: patent US8546613B2, “SGK1 inhibitors for the prophylaxis and/or therapy of viral diseases and/or carcinomas” (priority 2008, dated 2013)

Legend:
LCMV = tested on: LCMV; parameters: species or system mice; settings: mouse, in vivo
SGK1 protein kinase = target: T1, SGK1 protein kinase (Homo sapiens, UniProt O00141); experiment: SGK1 protein kinase inhibition, filter binding method; type: biochemical; settings: read-out: SGK1 enzyme inhibition IC50
T1 sequence (O00141 1-431): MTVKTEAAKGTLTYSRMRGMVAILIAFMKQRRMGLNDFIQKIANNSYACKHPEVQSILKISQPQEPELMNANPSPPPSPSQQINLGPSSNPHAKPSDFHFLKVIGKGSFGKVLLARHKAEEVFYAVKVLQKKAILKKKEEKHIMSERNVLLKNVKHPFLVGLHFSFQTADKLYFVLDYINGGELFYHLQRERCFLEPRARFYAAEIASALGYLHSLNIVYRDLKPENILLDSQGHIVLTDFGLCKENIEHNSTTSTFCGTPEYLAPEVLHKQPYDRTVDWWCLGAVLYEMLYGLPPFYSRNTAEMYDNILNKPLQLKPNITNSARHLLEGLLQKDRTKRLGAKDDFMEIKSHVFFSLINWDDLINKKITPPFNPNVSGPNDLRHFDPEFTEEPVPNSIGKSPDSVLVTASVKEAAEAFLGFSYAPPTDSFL
Source text: Further assays are known from the literature and could easily be carried out by the person skilled in the art (see, for example, Dhanabal et al., Cancer Res. 59:189-197; Xin et al., J. Biol. Chem. 274:9116-9121; Sheu et al., Anticancer Res. 18:4435-4441; Ausprunk et al., Dev. Biol. 38:237-248; Gimbrone et al., J. Natl. Cancer Inst. 52:413-427; Nicosia et al., In Vitro 18:538-549).
The inhibition of SGK1 protein kinase can be determined in the filter binding method.

colon carcinomas = experiment: Chemically induced (DMH/DSS) colon carcinomas in mice; type: in vivo; settings: DMH/DSS-induced tumour genesis; 4.46 mg/g of feed (approx. 600 mg/kg) for 20 days, one week after the treatment; vs placebo
Experimental: To this end, colon tumours were induced chemically in the experimental animals (Wang J G, Wang D F, Lv B J, Si J M: A novel mouse model for colitis-associated colon carcinogenesis induced by 1,2-dimethylhydrazine and dextran sulfate sodium. World J Gastroenterol 2004; 10:2958-2962). Some of the experimental animals were subjected to three cycles of chemical tumour genesis at an age of 8 weeks. To this end, the animals were treated intraperitoneally with 20 mg/kg of 1,2-dimethylhydrazine (DMH; Sigma-Aldrich Corporation. St. Louis. Mo. USA). Starting one week later, distilled water containing 30 g/l of synthetic dextran sulfate sodium (DSS; molecular weight 5000; Wako Pure Chemical Industries Ltd. Japan) was administered to the animals three times for 7 days and distilled water was administered for a further 14 days (total duration 3×(1+2 weeks)=9 weeks in total). The remainder of the experimental animals (control animals) were instead supplied intraperitoneally by injection with 20 mg/kg of a 0.9% sodium chloride solution. All mice were anaesthetised with ether at the age of 22 weeks and subsequently killed.
One week after the treatment, either a placebo or the SGK1 inhibitor was administered for 20 days. The SGK1 inhibitor had been added to the feed in a mixing ratio of 4.46 mg/g of feed. This corresponds to an approximate dose of 600 mg/kg of body weight.

Compound | bilirubin concentration (LCMV) | concentration of alanine aminotransferase (LCMV) | IC50 (SGK1 protein kinase) | growth of colon tumours (colon carcinomas)
CCc1c(C(=O)NNC(=O)C(O)c2cc(F)cc(F)c2)ccc(O)c1C (racemic) [I, N′-[2-(3,5-Difluorophenyl)-2-hydroxyacetyl]-2-ethyl-4-hydroxy-3-methylbenzohydrazide] | significantly reduced | significantly reduced | > 300 nM | significantly inhibited
CCc1c(C(=O)NNC(=O)[C@@H](O)c2cc(F)cc(F)c2)ccc(O)c1C [Ia, N′-[(S)-2-(3,5-Difluorophenyl)-2-hydroxyacetyl]-2-ethyl-4-hydroxy-3-methylbenzohydrazide] |  |  | > 300 nM | 
